Source: PMC12040169 (PLOS Biology, 2025)

Experiment: in vitro
Details: human, hela cells, % viability

Row | Compound | viability at 28.5 h, 10 µM [%]
1 | Cc1cccc2sc(NC(=O)CCCCCNC(N)=O)nc12 [CBK296689] | 106
2 | COCC1CN(S(=O)(=O)c2cnc3ccsc3c2)C1 [CBK304768] | 72.4
3 | CN1CCC(=NNC(=O)c2ccc(CN3CCOCC3)cc2)CC1 [CBK262749] | 86.6
4 | N#Cc1ccc(CN2CCCCC2c2[nH]ncc2C(N)=O)c(Cl)c1 (centres unmarked) [CBK304261] | 91.4
5 | O=C(O)CCC(=O)Nc1ccc(S(=O)(=O)Nc2ccc(I)cc2)cc1 [CBK264866] | 99.9
6 | O=C(NC(Nc1ncccn1)C(Cl)(Cl)Cl)c1ccccc1 (centres unmarked) [CBK261408] | 107
7 | COc1ccc(Oc2nccc(N3CCCN(Cc4ccc(C(F)(F)F)cc4)CC3)n2)cc1OC [CBK084152] | 98.2
8 | Cc1ccccc1C(=O)N1CCC(O)(Cn2ccnc2C)CC1 [CBK284950] | 105
9 | O=C1S/C(=C/c2ccc(Cl)cc2)C(=O)N1c1ccc(F)cc1 [CBK113265] | 102
10 | O=C(Nc1ccc(-c2ccccc2C(F)(F)F)s1)C(F)(F)F [CBK099942] | 96.3
11 | COc1cccc(C2C(C(=O)c3ccc(Cl)cc3)=C(O)C(=O)N2CCCN2CCOCC2)c1 (centres unmarked) [CBK264865] | 105
12 | CCc1nnc(SCc2ccc(CSc3nnc(CC)n3N)cc2)n1N [CBK265689] | 106
13 | O=C(NC(=S)Nc1cccc2ncccc12)c1ccc(N2CCOCC2)c([N+](=O)[O-])c1 [CBK267608] | 87.8
14 | Cc1ccc2c(c1)C(C[C@H]1CN(C(=O)c3ccco3)CC[C@H]1CC(=O)O)=NCC2 [CBK289162] | 79.1
15 | Oc1ccc(SCCCCCN2CCCCC2)cc1 [CBK261488] | 92.3
16 | O=C(Nc1ccc(Cl)c(Cl)c1)c1cnc2sccn2c1=O [CBK287449] | 83.3
17 | CSc1nc2ccc(S(=O)(=O)NCCOc3ccc(Cl)cc3)cc2s1 [CBK268219] | 81.9
18 | COc1cc(NC(=O)CSc2ncnc3sc4c(c23)CCCC4)cc(OC)c1 [CBK267547] | 89.6
19 | COc1ccccc1OCCOc1cccc(/C=N/n2cnnc2)c1 [CBK263288] | 94.7
20 | Oc1cccc(-c2cncc(NCCCN3CCOCC3)n2)c1 [CBK037858] | 89.1
21 | CN1CCN(C(c2cccs2)c2nnnn2C(C)(C)C)CC1 (centres unmarked) [CBK141702] | 91.9
22 | CC(=O)c1cc2cnccc2[nH]c1=O [CBK089771] | 86.5

Row | Compound | viability at 28.5 h, 10 µM [%]
23 | CC(=O)Nc1ccc(S(=O)(=O)Nc2cccc(-c3cn4cccnc4n3)c2)cc1 [CBK269125] | 74.9
24 | Cn1nc(-c2cccs2)cc1[C@H]1CN2CC[C@H]1C[C@@H]2CNC(=O)Nc1ccccc1 [CBK289104] | 89
25 | CC(C)(CO)CNc1nc(-c2ccc(F)cc2)cnc1N [CBK063589] | 95.7
26 | Cc1ccccc1C(=O)N/N=C/c1ccc(Sc2nnnn2-c2ccccc2)o1 [CBK263259] | 114
27 | CCOC(=O)CNc1ccc(C(F)(F)F)cc1 [CBK057732] | 94.4
28 | CC(=O)NC1CCN(c2nc(N(C)C)nc3c2CCN(C(C)=O)C3)CC1 [CBK307079] | 85.6
29 | CCc1ccc(NC(=O)N2CCCCC2CCn2ccnc2)cc1 (centres unmarked) [CBK307453] | 110
30 | COc1c(Cl)cc(Cl)cc1CNC(C)(C)CO [CBK270212C] | 102
31 | COc1ccc(Cn2nc3nnc(-c4ccccc4)c(-c4ccccc4)n3c2=O)cc1 [CBK286180] | 88.8
32 | CCOC(=O)COc1ccc(/C=C2/SC(=S)N(c3cccc(C(=O)O)c3)C2=O)cc1 [CBK265632] | 107
33 | O=S(=O)(Nc1ccc(N2CCOCC2)cc1)c1cccc(OC(F)(F)F)c1 [CBK296759] | 95.1
34 | O=c1c2cc(OCc3ccc(Cl)cc3)ccc2nc2n1CCC2 [CBK287977] | 91.6
35 | CCOC(=O)Nc1ccc2c(c1)N(C(=O)CN1CCN(C)CC1)c1ccccc1CC2 [CBK278194C] | 88.7
36 | Cc1cccc2cc3c(nc12)OCCN(C)C3 [CBK285192] | 89.1
37 | CC(Oc1ccc2c(c1)OCO2)C(=O)NNC(=O)Nc1cccc(C(F)(F)F)c1 (centres unmarked) [CBK266922] | 87.7
38 | O=C(C1c2ccccc2Oc2ccccc21)N1C2CCC1CC(O)(c1ccco1)C2 (centres unmarked) [CBK286169] | 93.8
39 | CCCC(=O)Nc1nc(-c2ccc(C)cc2)c(C)s1 [CBK287763] | 110
40 | COC(=O)C1CC(O)CC1C(=O)N1CCCC1 (centres unmarked) [CBK011029] | 89.6
41 | CCCCCNC(=O)N1CCN(CC(=O)OCC)CC1 [CBK044786] | 96.6
42 | NCCNC(=O)c1cc2cc(F)ccc2[nH]1 [CBK107345] | 95.8
43 | OC1(c2ccc(F)cc2)CC2CCC(C1)N2Cc1ccccn1 (centres unmarked) [CBK283490] | 108
44 | CCN1CCN(c2nc(N)c3ccccc3n2)CC1 [CBK268561C] | 82.4

Row | Compound | viability at 28.5 h, 10 µM [%]
45 | O=C(COc1cc(C(=O)O)nc2ccccc12)NCc1ccc(Cl)cc1 [CBK287247] | 92
46 | Cc1nc(CN2CCCC(NCc3cccc4ccccc34)C2)no1 (centres unmarked) [CBK304068] | 71.4
47 | CN(C)CCN(C)c1cccc(-c2cccc(OC(F)(F)F)c2)n1 [CBK037020] | 102
48 | OC(COc1cccc2c1CCCC2)CN1CCC(O)(c2ccc(Cl)c(C(F)(F)F)c2)CC1 (centres unmarked) [CBK003581] | 102
49 | O=C(CN1CCOCC1)N/N=C/c1ccncc1 [CBK019949] | 83.8
50 | O=C(O)c1cn(C2CC2)c2cc(N3CCN(C(=O)C4CCCO4)CC3)c(F)cc2c1=O (centres unmarked) [CBK297139] | 97.7
51 | Cc1ccc(S(=O)(=O)N(CC(=O)Nc2cccnc2)c2cccc(Br)c2)cc1 [CBK264094] | 62.8
52 | Cc1cc(C)cc(Nc2c([N+](=O)[O-])nn(-c3cccc(Cl)c3)[n+]2[O-])c1 [CBK268254] | 105
53 | O=C(CN1C(=O)S/C(=C\C=C\c2ccccc2)C1=O)Nc1cccc2c1C(=O)c1ccccc1C2=O [CBK263870] | 87.1
54 | CCN1CCN(C2CCN(Cc3ccccc3[N+](=O)[O-])CC2)CC1 [CBK264631G] | 98.1
55 | NNc1nc(-c2ccc(Br)cc2)nc2ccccc12 [CBK262860] | 94.6
56 | Cc1ccc(S(=O)(=O)NC(C)(C)CSc2nncn2N)cc1 [CBK266297] | 103
57 | C=CCn1c(N2CCC(C(=O)NC3CC3)CC2)nc2ccccc21 [CBK283924] | 86.4
58 | O=C1CC(c2ccccc2)c2c(n3ncnc3[nH]c2=O)N1 (centres unmarked) [CBK287912] | 89.4
59 | CCc1nc(C)ccc1OCC(O)CNC(C)(C)C (centres unmarked) [CBK019698] | 94.3
60 | O=[N+]([O-])c1cc(S(=O)(=O)Nc2cccc3ccccc23)ccc1N1CCNCC1 [CBK015584C] | 90
61 | Cc1cc2nc(C(=O)NCCCn3ccnc3C(C)C)cc(C)n2n1 [CBK307022] | 90.5
62 | Cc1ccccc1C(=O)Nc1cccc(-c2nnc(SCC(=O)c3ccc(Cl)cc3)n2C)c1 [CBK264053] | 89.3
63 | CC(=O)Nc1ccc(NC(=O)C2COc3ccccc3O2)cc1C (centres unmarked) [CBK269898] | 99.1
64 | c1ccc(SCCCSc2ccccn2)cc1 [CBK021704] | 87
65 | Cc1cc(C2CCCCCN2C(=O)c2cc(C3CC3)on2)on1 (centres unmarked) [CBK285414] | 90.1
